Assay results from article PMC9374667 (Communications Biology, 2022).
Several values for one entry are separate records, joined by “and”; a condition that tells them apart may be missing. Equal values may be shown once.

What was measured:
[1] = In vitro dissolution studies: dynamic solubility in buffers and simulated biological fluids; assay type: physicochemical; design: BBR dissolved in CMC-Na (Figure S7a) / Ibu dissolved in CMC-Na (Figure S7b): unit not given here; details: mean; for solubility at 0.5 h / solubility at 1 h / solubility at 2 h / solubility at 24 h: 37 °C
Experimental: (§1) Solubilities were determined by adding excess sample to 30 mL different mediums, such as HCl solution, acetate buffer, phosphate buffer, SGF, FaSSIF and FeSSIF. The configuration of various buffer solutions is shown in Supplementary Table 2. After being shaken at 400 rpm at 37 °C for 0.5, 1, 2, and 24 h, 0.3 mL of suspension was sampled and centrifuged at 14,000 rpm for 8 min to isolate mother liquor, and then analyzed by HPLC after dilution. All samples were analyzed in triplicate.

[2] = pH of the solution after 24 hours of the dissolution test; assay type: physicochemical
Experimental: as §1, with “triplicate. […]” for “triplicate.”
into a 1000 mL flask followed by addition of about 800 mL of deionized water. The mixture is stirred until all solids are dissolved.
Add about 100 mL of 0.1 N HCl, check pH value with a pH meter and adjust the pH to 2.0 with HCl (1 N) or NaOH (1 N). Then dilute to the volume with deionized water.
* 1N sodium hydroxide: Weigh 8 g NaOH in a 200 mL plastic volumetric flask, add deionized water to volume and mix well. […]
phosphate and 3.093 g sodium chloride in a 500 mL volumetric flask, add about 0.450 L deionized water, and adjust the pH to 6.5 with 1N sodium hydroxide or 1 N hydrochloric acid. Make up to volume (0.5 […]
Step 2: Place and dissolve 1.120 g FaSSIF/FeSSIF/FaSSGF instant powder with 0.250 L of buffer (from step 1) in a 500 mL volumetric flask, then add buffer (from step 1) to volume, and mix well. […]
g sodium chloride in a 500 mL volumetric flask, add about 0.450 L deionized water, and adjust the pH to 5.0 with 1 N sodium hydroxide or 1 N hydrochloric acid. Make up to volume (500 mL) with
Step 2: Place and dissolve 5.600 g FaSSIF/FeSSIF/FaSSGF instant […]
0.750 L deionized water. Make up to volume (1000 mL) with deionized water and placed overnight.
(1 picture or pasted object on this page, not shown here)

db/db mice [3] = assay: Fat depots weight (BAT, iWAT, eWAT; percentage of body weight); assay type: in vivo; design: key to BAT fat depot weight (Figure 4c): % of body weight (fat depot weight / body weight * 100%); details: db/db mice
Experimental: The lean wild type control and the db/db control mice were given equal vehicle volume (0.5% CMC-Na solution). All mice were monitored for food intake, body weight, and fasting blood glucose during the 35-day trial. Glucose tolerance test (GTT) and insulin resistance test (ITT) were performed at 4 and 5 weeks of treatment, respectively. Metabolic analysis was performed at 5 weeks of treatment. At the end of the study, blood samples were taken through the retroorbital venous sinus of mice, fat depots (brown fat, inguinal subcutaneous fat, epididymal fat, perirenal fat and mesenteric fat depot) were dissected, weighed, and immediately frozen in liquid nitrogen and stored at −80 °C until required. Weight of fat depots are expressed in percentage (fat depots weight /bodyweight * 100%).

db/db mice [4] = assay: HE staining of epididymal adipose tissue, adipocyte size; assay type: in vivo
Experimental: The adipose tissue was fixed overnight in 4% paraformaldehyde, then embedded in paraffin and cut into 5 µm thick slices. Tissue sections were stained with hematoxylin and eosin (H&E). For immunohistochemistry, sections were incubated with primary antibodies against F4/80 (1:100 dilution) diluted in the blocking solution at 4 °C overnight. The tissue sections were then incubated with the horseradish peroxidase (HRP)-conjugated secondary antibody at room temperature for 2 h. Finally, the sections were developed with diaminobenzidine (DAB) and counterstained with hematoxylin. Images were obtained under a microscope. To quantify the F4/80-positive macrophages, two random fields per sample were analyzed by Image J software. The IHC profiler plugin of ImageJ was used to calculate the F4/80 positive area.

db/db mice [5] = assay: Glucose tolerance test (GTT); assay type: in vivo; design: blood glucose level / blood glucose AUC: unit not given here; details: BBR 150mg/kg; for blood glucose level, mean: mean of 10 mice
db/db mice [6] = assay: Insulin tolerance test (ITT), AUC and initial slope; assay type: in vivo; design: blood glucose AUC: unit not given here; details: BBR 150mg/kg; for blood glucose level: in mmol/L (unit assumed)
Experimental: Mice were fasted for 4 h for insulin resistance test and intraperitoneally injected with 1 unit/kg of insulin. Blood glucose levels were measured from the tail vein blood at 0, 15, 30, 45, 60, 90, and 120 min after injection. Plasma insulin levels were measured using an ultrasensitive mouse insulin ELISA kit (Nanjing Jiancheng Bioengineering Institute, Nanjing, China).

[7] = FaSSIF-V1 (fasted state simulated intestinal fluid), thermodynamic from solid, FaSSIF-V1 (pH 6.5)
[8] = FaSSIF-V1 (fasted state simulated intestinal fluid), FaSSIF-V1 (pH 6.5)
[9] = FeSSIF-V1 (fed state simulated intestinal fluid), thermodynamic from solid, FeSSIF-V1 (pH 5.0)
[10] = SGF (simulated gastric fluid), simulated gastric fluid, thermodynamic from solid, SGF (pH 2.0)
[11] = simulated gastric fluid, thermodynamic from solid, HCl solution (pH 1.0)
[12] = BBR 150mg/kg, individual mice 1-10, in %
[13] = BJ 75 and 150 mg/kg, BBR 150 mg/kg, Ibu 150 mg/kg
[14] = individual mice, time column 1 of 7 (time not printed)
[15] = individual mice, time column 2 of 7 (time not given)
[16] = individual mice, time column 3 of 7 (time not given)
[17] = individual mice, time column 4 of 7 (time not given)
[18] = individual mice, time column 5 of 7 (time not given)
[19] = individual mice, time column 6 of 7 (time not given)
[20] = individual mice, time column 7 of 7 (time not printed)

With `COc1ccc2cc3[n+](cc2c1OC)CCc1cc2c(cc1-3)OCO2` [BBR, Berberine chloride dihydrate] the solubility at 0.5 h ([1]; Acetate buffer (pH 4.5)) was 2080 µg/mL, the solubility at 1 h ([1]; Acetate buffer (pH 4.5)) was 2070 µg/mL and the solubility at 2 h ([1]; Acetate buffer (pH 4.5)) was 1540 µg/mL. For the same compound, the solubility at 24 h ([1]; Acetate buffer (pH 4.5)) was 1540 µg/mL, the “BBR dissolved in CMC-Na (Figure S7a)” value ([1]; time 0.5) was 1.991 and the “BBR dissolved in CMC-Na (Figure S7a)” value ([1]; time 1) was 2.188. The “BBR dissolved in CMC-Na (Figure S7a)” value ([1]; time 2) was 2.102, the “BBR dissolved in CMC-Na (Figure S7a)” value ([1]; time 24) was 2.4551 and the solubility at 0.5 h [1, 7] was 151 µg/mL. The solubility at 24 h [1, 7] was 64.1 µg/mL, the solubility at 1 h [1, 8] was 126 µg/mL and the solubility at 2 h [1, 8] was 87.2 µg/mL. It also gave a solubility at 0.5 h [1, 9] of 137 µg/mL, a solubility at 2 h [1, 9] of 73.3 µg/mL and a solubility at 24 h [1, 9] of 63.1 µg/mL. For the same compound, the solubility at 1 h ([1]; FeSSIF-V1 (fed state simulated intestinal fluid), FeSSIF-V1 (pH 5.0)) was 107 µg/mL, the solubility at 2 h ([1]; HCl solution (pH 1.0)) was 106 µg/mL and the solubility at 24 h ([1]; HCl solution (pH 1.0)) was 81.1 µg/mL. The solubility at 0.5 h ([1]; Phosphate buffer (pH 6.8)) was 2290 µg/mL, the solubility at 1 h ([1]; Phosphate buffer (pH 6.8)) was 2380 µg/mL and the solubility at 2 h ([1]; Phosphate buffer (pH 6.8)) was 1790 µg/mL. The solubility at 24 h ([1]; Phosphate buffer (pH 6.8)) was 1950 µg/mL, the solubility at 0.5 h [1, 10] was 172 µg/mL and the solubility at 1 h [1, 10] was 175 µg/mL. It also gave a solubility at 2 h [1, 10] of 140 µg/mL, a solubility at 24 h ([1]; SGF (simulated gastric fluid), SGF (pH 2.0)) of 110 µg/mL and a solubility at 0.5 h [1, 11] of 137 µg/mL. The solubility at 1 h [1, 11] was 146 µg/mL, the “pH of the solution after 24 hours” value ([2]; Acetate buffer, blank vehicle 4.54) was 4.57 and the “pH of the solution after 24 hours” value ([2]; CMC-Na, blank vehicle 6.51) was 6.20. For the same compound, the “pH of the solution after 24 hours” value ([2]; FaSSIF-v1, blank vehicle 6.51) was 6.54, the “pH of the solution after 24 hours” value ([2]; FeSSIF-v1, blank vehicle 5.04) was 5.03 and the “pH of the solution after 24 hours” value ([2]; HCl solution, blank vehicle 1.08) was 1.05. The “pH of the solution after 24 hours” value ([2]; Phosphate buffer, blank vehicle 6.84) was 6.90, the “pH of the solution after 24 hours” value ([2]; SGF, blank vehicle 2.03) was 2.07 and the “BAT fat depot weight (Figure 4c)” value (db/db mice [3]; BBR 150mg/kg, individual mice 1-10) was 2.4015 and 0.6109 and 1.4913 and 1.4054 and 1.8804 and 2.4038 and 1.1343 and 1.618 and 1.1772 and 2.0775. For the same compound, the “eWAT fat depot weight (Figure 4c)” value (db/db mice [3]; [12]) was 2.6561 and 3.1311 and 2.7778 and 2.6199 and 2.8014 and 3.2406 and 2.7924 and 3.779 and 2.6477 and 2.5027, the “iWAT fat depot weight (Figure 4c)” value (db/db mice [3]; [12]) was 3.5734 and 2.9857 and 2.7524 and 3.658 and 3.8567 and 3.8981 and 3.3728 and 3.0795 and 1.8382 and 2.8305 and the “Fat depots weight / body weight” value (db/db mice [3]; 150 mg/kg for 35 days, individual mice, 150 mg/kg) was 19.7808% and 22.3551% and 14.9978% and 19.6619% and 20.7394% and 16.7296% and 16.0902% and 17.3833% and 23.2726% and 23.7021%. For the same compound, the “Fat depots weight compared with vehicle” value (db/db mice [3]; [13]) was “lower fat depots weight than vehicle-treated db/db mice”, the “Cell diameter (adipocyte size of eWAT)” value (db/db mice [4]; 150 mg/kg, individual cells) was 112.956 µm and 111.168 µm and 109.684 µm and 107.318 µm and 103.404 µm and 102.799 µm and 102.56 µm and 100.649 µm and 97.9486 µm and 97.2359 µm and 94.5814 µm and 93.4958 µm and 92.5409 µm and 90.4031 µm and 87.905 µm and 126.009 µm and 123.446 µm and 119.401 µm and 113.9 µm and 113.401 µm and the “Size of adipocytes in eWAT compared with vehicle” value (db/db mice [4]; [13]) was “significantly reduced”. The blood glucose level (db/db mice [5]; [14]) was 16.4 and 13.5 and 14.2 and 17.7 and 15.0 and 13.4 and 16.8, the blood glucose level (db/db mice [5]; [15]) was 28.7 and 28.8 and 32.6 and 33.3 and the blood glucose level (db/db mice [5]; [16]) was 31.2 and 22.4 and 33.3 and 29.2. For the same compound, the blood glucose level (db/db mice [5]; [17]) was 27.9 and 29.2 and 23.4 and 32.4 and 30.4, the blood glucose level (db/db mice [5]; [18]) was 28.4 and 22.4 and 33.3 and 28.6 and the blood glucose level (db/db mice [5]; [19]) was 23.4 and 21.0 and 20.5. For the same compound, the blood glucose level (db/db mice [5]; [20]) was 17.7 and 16.7 and 22.7 and 19.6 and 20.9, the blood glucose level, mean (db/db mice [5]; time column 1 of 7 (time not printed)) was 15 mmol/L and the blood glucose level, mean (db/db mice [5]; time column 2 of 7 (time not given)) was 30.7 mmol/L. The blood glucose level, mean (db/db mice [5]; time column 3 of 7 (time not given)) was 28.4 mmol/L, the blood glucose level, mean (db/db mice [5]; time column 4 of 7 (time not given)) was 27.7 mmol/L and the blood glucose level, mean (db/db mice [5]; time column 6 of 7 (time not given)) was 22.6 mmol/L. For the same compound, the blood glucose level, mean (db/db mice [5]; time column 7 of 7 (time not printed)) was 20.1 mmol/L, the “blood glucose AUC” value (db/db mice [5]; Figure 5d, individual mice) was 3443.25 and 3088.5 and 2416.5 and 3051.75 and 2479.5 and 3425.25 and 2977.5 and 2793.75 and 3132 and 3001.5 and the blood glucose level (db/db mice [6]; [14]) was 19.2 and 16.4 and 9.2 and 15.3 and 9.5 and 19.6 and 19.0 and 21.8 and 10.2. For the same compound, the blood glucose level (db/db mice [6]; [15]) was 18.1 and 16.0 and 9.1 and 15.7 and 11.1 and 18.6 and 18.3 and 22.5 and 13.5, the blood glucose level (db/db mice [6]; [16]) was 14.4 and 12.6 and 7.4 and 12.2 and 7.9 and 18.7 and 13.6 and 19.0 and 15.5 and 10.0 and the blood glucose level (db/db mice [6]; [17]) was 12.3 and 9.3 and 4.0 and 8.5 and 6.8 and 15.1 and 11.8 and 17.7 and 13.7 and 6.9. For the same compound, the blood glucose level (db/db mice [6]; [18]) was 10.3 and 9.1 and 4.5 and 8.8 and 7.2 and 13.0 and 10.2 and 17.4 and 10.8 and 7.5, the blood glucose level (db/db mice [6]; [19]) was 11.7 and 9.8 and 3.9 and 8.9 and 7.6 and 15.8 and 11.2 and 20.0 and 12.2 and 8.2 and the blood glucose level (db/db mice [6]; [20]) was 11.0 and 10.0 and 4.1 and 9.3 and 6.7 and 17.4 and 10.3 and 19.0 and 11.5 and 7.3. The “blood glucose AUC” value (db/db mice [6]; Figure 5f, individual mice) was 948.75 and 1960.5 and 1518 and 2328 and 1638 and 1056.75 and 1563.75 and 1340.25 and 656.25 and 1265.25 and the “Initial Slope” value (db/db mice [6]; db/db mice, individual animals (Figure S10a)) was -0.0533 mmol/L/min and -0.03 mmol/L/min and -0.18 mmol/L/min and -0.0933 mmol/L/min and -0.1367 mmol/L/min and -0.0067 mmol/L/min and -0.16 mmol/L/min and -0.1267 mmol/L/min and -0.06 mmol/L/min and -0.1033 mmol/L/min.
